# Like-named read-outs stand apart in the source and are kept apart here.
# Assays:
# [1] = Hepatocyte stability (human)
# [2] = system: EAE optic nerve gene transcripts; assay: NanoString nCounter Mouse Neuropathology gene expression, optic nerve RNA; format: in vivo
# Procedure: RNA Extraction and NanoString nCounter Gene Expression Assay: RNA was isolated from a single optic nerve of normal, EAE+Vehicle, and EAE+K102 mice[28]. The RNA samples were analyzed using the nCounter Mouse Neuropathology panel (NanoString Technologies) (Supplementary Data Set 1). Fold changes were calculated using normalized data for the three groups (Supplementary Data Set 2).
# Genes associated with myelination, inflammation, and axon health are altered in EAE optic nerves compared to normal optic nerves. To examine how K102 treatment affects these gene transcripts, RNA from treated optic nerves was analyzed using the NanoString Neuropathology gene expression panel (Fig. 7A, Supplementary Data Set 1). […] Ccr2 is a chemokine receptor involved in recruiting immune cells to sites of inflammation. Cpt1b (carnitine palmitoyltransferase 1B) is an enzyme critical for fatty acid oxidation.
# RNA Extraction and NanoString nCounter Gene Expression Assay: RNA was isolated from a single optic nerve as described previously in(9). Optic nerves were isolated from normal, EAE+V, and EAE+K102 mice. RNA isolates were run on the nCounter Mouse Neuropathology panel (NanoString Technologies, Seattle, WA). Normalized data was used to calculate fold change for all three groups.
# For nCounter gene expression analysis, normalized counts were used to calculate log2 fold changes. Welch’s t-test (unequal variance t-test) was applied when comparing NM vs. EAE+V and EAE+V vs. EAE+K102, as both sample sizes and variances differed between groups. Significance levels were set as follows: *p < 0.05, **p < 0.01, ***p < 0.001, and ****p < 0.0001. Summary of statistics for Figures is in a table format in the supplementary sections Supplementary TableS7-S12 […]
# [3] = Oral PK of K102 at 40 mg/kg in female dogs; format: in vivo, beagle dog; settings: female dog, PO 40 mg/kg, mean
# [4] = Liver microsome stability (mouse)
# EAE mice optic tract = assay: Optic tract IHC in EAE; format: in vivo, mouse
# Text: (§1) Animal Perfusions, tissue preparation, and IHC: Mice were deeply anesthetized and euthanized with isoflurane and intracardially perfused with ice‐cold PBS followed by 10% formalin in PBS (Fisher Scientific, Hampton, NH). Eyes, optic nerves, and brain were collected and processed for IHC as previously described[23],[28]. Antibody details are listed in Supplementary Table S6.
# Imaging and Quantification: Retina, optic nerve, and brain sections were imaged using an Olympus BX61 spinning disk confocal microscope with 10× and 40× objectives[23],[28]. Z-stack images were captured and processed using Slidebook 6 and cellSense software. Immunofluorescence intensity and cell counts were quantified using NIH ImageJ, and statistical analysis was performed with GraphPad Prism.
# Treatment with K102 alleviated EAE-induced demyelination relative to vehicle-treated mice.
# as §1, with “Perfusions,” for “Animal Perfusions,”, “anesthetized” for “anesthetized and euthanized”, “described(8, 9).” for “described[23],[28].”
# Imaging and Quantification: Retina, optic nerve, and brain sections were imaged using an Olympus BX61 spinning disk confocal microscope equipped with 10x and 40x Super Apochromat objectives (Olympus America Inc., Cypress, CA) connected to a camera (Hamamatsu Orca‐R2). Z‐stack images were acquired, and projection images were compiled using Slidebook 6 and cellSense software (Intelligent Imaging Innovations Inc, Santa Monica, CA). Immunofluorescence intensity and cell numbers were assessed with NIH ImageJ software (v1. 50i http://rsb.info.nih.gov/ij/) and quantified. Results from all counts were analyzed in GraphPad Prism for statistical significance.
# CYP2D6 = CYP2D6 (Homo sapiens, UniProt P10635); settings: 10 µM
# Chain of CYP2D6 (P10635 whole entry): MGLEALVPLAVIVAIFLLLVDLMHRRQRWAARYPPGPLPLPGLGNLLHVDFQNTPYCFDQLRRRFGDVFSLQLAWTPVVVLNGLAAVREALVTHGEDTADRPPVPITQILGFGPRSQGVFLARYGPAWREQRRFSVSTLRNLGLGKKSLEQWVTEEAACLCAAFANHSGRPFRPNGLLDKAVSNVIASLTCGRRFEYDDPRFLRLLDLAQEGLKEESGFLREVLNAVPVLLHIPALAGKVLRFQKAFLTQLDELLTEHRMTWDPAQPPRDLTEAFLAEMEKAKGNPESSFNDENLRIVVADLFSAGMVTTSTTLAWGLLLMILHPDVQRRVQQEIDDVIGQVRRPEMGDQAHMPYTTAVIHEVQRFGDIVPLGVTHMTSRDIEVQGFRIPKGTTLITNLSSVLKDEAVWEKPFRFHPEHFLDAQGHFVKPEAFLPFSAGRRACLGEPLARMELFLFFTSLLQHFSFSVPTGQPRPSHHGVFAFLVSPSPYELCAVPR
structure (smiles),measurement,setting,value
"Cc1cc(O)ccc1-n1nc2ccc(O)cc2c1Cl [Compound K102, IndCl-o-Me]",Hepatocyte Stability (Human) % Remaining (15 min),[1]; 15 min,60.05%
same,Hepatocyte Stability (Human) CLint,"[1]; human, hepatocytes",72.12 µL/min/mg protein
same,Ccr2 and Cpt1b transcripts vs vehicle-treated optic nerves,[2]; 2 of 770 genes,significantly altered
same,Arc and Pvalb transcripts vs vehicle,"[2]; optic nerve, EAE",increased
same,Sox10 and Olig2 transcripts relative to vehicle,"[2]; optic nerve, EAE",increase
same,"complement system genes C1qa, C1qb, C1qc, and C3","[2]; optic nerve, EAE",did not significantly impact
same,"mitochondrial-related genes Pink1, Tfam, Mfn2, Park7, and Sirt2",[2]; vs untreated EAE optic nerves,significant increase
same,AUCInf/D,[3],0.6 kg·ng·h/mL/mg
same,AUClast,[3],24.6 ng·h/mL
same,Cmax,[3],31.7 ng/mL
same,Tmax,[3],15 min
same,Liver Microsome Stability (Mouse) % Remaining (30 min),[4]; 30 min,30.18%
same,Liver Microsome Stability (Mouse) CLint,"[4]; mouse, microsomes",40.80 µL/min/mg protein
same,Liver Microsome Stability (Mouse) t1/2,"[4]; mouse, microsomes",17.12 min
same,"GFAP, mean value",EAE mice optic tract,significantly reduced
same,"Iba1, mean value",EAE mice optic tract,significantly reduced
same,"MBP, mean value",EAE mice optic tract,alleviated
same,"NFM, mean value",EAE mice optic tract,significantly increased
same,"SARM1, mean value",EAE mice optic tract,did not produce a significant change
same,"GFAP, mean value",EAE mice optic tract; listed as 102,14.14
same,"Iba1, mean value",EAE mice optic tract; listed as 102,9.623
same,"MBP, mean value",EAE mice optic tract; listed as 102,27.62
same,"NFM, mean value",EAE mice optic tract; listed as 102,18.64
same,"SARM1, mean value",EAE mice optic tract; listed as 102,11.45
"Oc1ccc(-n2nc3ccc(O)cc3c2Cl)c(O)c1 [Compound K110, IndCl-o-OH]",CYP Inhibition Percentage CYP2D6,CYP2D6,5.63%

# — PMC12508063, “Chloroindazole based estrogen receptor β ligands with favorable pharmacokinetics promote functional remyelination and visual recovery” (Scientific Reports, 2025)
